In ChEMBL document CHEMBL3627643, “Synthesis of stereochemically diverse cyclic analogs of tubulysins” (Bioorg Med Chem, 2015):

Target: Tubulin (Sus scrofa) (UniProt P02554+P02550)
Experiment: Inhibition of pig tubulin polymerization at 5 uM incubated for 20 mins at 37 degC by fluorescence based tubulin polymerization inhibition assay
Format: protein assay

Tubulin (Sus scrofa), sequence (P02550 whole entry, looked up): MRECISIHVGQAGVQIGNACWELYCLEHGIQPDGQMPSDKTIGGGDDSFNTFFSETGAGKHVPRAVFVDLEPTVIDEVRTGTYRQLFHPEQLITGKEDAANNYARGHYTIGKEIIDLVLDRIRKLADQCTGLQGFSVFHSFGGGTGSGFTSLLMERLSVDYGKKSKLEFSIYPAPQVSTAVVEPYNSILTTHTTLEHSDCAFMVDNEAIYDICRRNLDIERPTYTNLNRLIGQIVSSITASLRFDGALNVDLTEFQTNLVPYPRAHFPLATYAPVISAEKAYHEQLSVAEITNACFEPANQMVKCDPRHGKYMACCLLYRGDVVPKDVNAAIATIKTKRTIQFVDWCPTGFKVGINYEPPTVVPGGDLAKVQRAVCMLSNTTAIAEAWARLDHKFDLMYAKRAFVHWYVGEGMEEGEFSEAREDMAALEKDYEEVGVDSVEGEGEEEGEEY
Tubulin (Sus scrofa), sequence (P02554 whole entry, looked up): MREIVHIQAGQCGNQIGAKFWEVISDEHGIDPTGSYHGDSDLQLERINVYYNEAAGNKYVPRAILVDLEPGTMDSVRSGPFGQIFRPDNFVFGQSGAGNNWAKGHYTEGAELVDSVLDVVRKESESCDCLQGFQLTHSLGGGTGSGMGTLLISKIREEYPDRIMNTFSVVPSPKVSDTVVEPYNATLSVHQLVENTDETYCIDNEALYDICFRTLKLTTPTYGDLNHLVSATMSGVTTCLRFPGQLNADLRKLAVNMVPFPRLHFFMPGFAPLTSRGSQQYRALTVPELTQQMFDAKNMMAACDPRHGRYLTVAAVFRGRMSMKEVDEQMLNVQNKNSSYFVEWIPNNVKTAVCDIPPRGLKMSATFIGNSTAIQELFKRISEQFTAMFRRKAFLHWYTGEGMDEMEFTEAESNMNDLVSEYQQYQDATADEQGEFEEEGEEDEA

Point of comparison: `CC[C@H](C)[C@H](NC(=O)CN(C)C)C(=O)N[C@H]1CCO[C@@H](c2nc(C(=O)NC(C)C)cs2)C1`, inhibition 12.9%. Against it:
- CC[C@H](C)[C@H](NC(=O)[C@H]1CCCCN1C)C(=O)N[C@@H]1CCO[C@H](c2nc(C(=O)NCCc3ccccc3)cs2)C1 — lower, 3.76%
- CC[C@H](C)[C@H](NC(=O)[C@H]1CCCCN1C)C(=O)N[C@@H]1CCO[C@@H](c2nc(C(=O)NCCc3ccccc3)cs2)C1 — lower, 2.23%
- CC[C@H](C)[C@H](NC(=O)[C@H]1CCCCN1C)C(=O)N(C)[C@H]1CCO[C@@H](c2nc(C(=O)NCCN3CCOCC3)cs2)C1 — lower, 7.46%
- CC[C@H](C)[C@H](NC(=O)[C@H]1CCCCN1C)C(=O)N[C@@H]1CCO[C@H](c2nc(C(=O)NC(C)C)cs2)C1 — lower, 1.45%
- CC[C@@H](C)[C@H](NC(=O)[C@H]1CCCCN1C)C(=O)N(COC(=O)CC(C)C)[C@H](C[C@@H](OC(C)=O)c1nc(C(=O)N[C@@H](Cc2ccc(O)cc2)C[C@H](C)C(=O)O)cs1)C(C)C — higher, 72.6%
- CC[C@H](C)[C@H](NC(=O)[C@H]1CCCCN1C)C(=O)N[C@H]1CCO[C@H](c2nc(C(=O)NCCc3ccccc3)cs2)C1 — lower, 5.61%
- CC[C@H](C)[C@H](NC(=O)[C@H]1CCCCN1C)C(=O)N[C@H]1CCO[C@@H](c2nc(C(=O)NCCc3ccccc3)cs2)C1 — lower, 1.62%
- CC[C@H](C)[C@H](NC(=O)[C@H]1CCCCN1C)C(=O)N[C@@H]1CCO[C@@H](c2nc(C(=O)NC(C)C)cs2)C1 — lower, 3.9%
- CC[C@]1(O)C[C@@H]2CN(CCc3c([nH]c4ccccc34)[C@@](C(=O)OC)(c3cc4c(cc3OC)N(C)[C@H]3[C@@](O)(C(=O)OC)[C@H](OC(C)=O)[C@]5(CC)C=CCN6CC[C@]43[C@@H]65)C2)C1 — higher, 73.9%
- CC[C@H](C)[C@@H](C(=O)N[C@H]1CCO[C@@H](c2nc(C(=O)NCCc3ccccc3)cs2)C1)N(C)C — higher, 15.8%
- CC[C@H](C)[C@H](NC(=O)[C@H]1CCCCN1C)C(=O)N(C)[C@H]1CCO[C@@H](c2nc(C(=O)NCCOC)cs2)C1 — lower, 10.6%
- CC[C@H](C)[C@H](NC(=O)[C@H]1CCCCN1C)C(=O)N[C@H]1CCO[C@H](c2nc(C(=O)NC(C)C)cs2)C1 — lower, 8.73%
- CC[C@H](C)[C@H](NC(=O)[C@H]1CCCCN1C)C(=O)N(C)[C@H]1CCO[C@@H](c2nc(C(=O)NC(C)C)cs2)C1 — higher, 15.5%
- CC[C@H](C)[C@H](NC(=O)[C@H]1CCCCN1C)C(=O)N[C@H]1CCO[C@@H](c2nc(C(=O)NC(C)C)cs2)C1 — lower, 5.35%
- CC[C@H](C)[C@H](NC(=O)[C@H]1CCCCN1C)C(=O)N(C)[C@H]1CCO[C@@H](c2nc(C(=O)NCCc3ccccn3)cs2)C1 — higher, 20.2%
- CC[C@H](C)[C@H](NC(=O)[C@H]1CCCCN1C)C(=O)N(C)[C@H]1CCO[C@@H](c2nc(C(=O)NCc3ccccc3)cs2)C1 — lower, 10.2%
- CC[C@H](C)[C@H](N)C(=O)N[C@H]1CCO[C@@H](c2nc(C(=O)NCCc3ccccc3)cs2)C1 — lower, 8.52%
- CC[C@H](C)[C@H](N)C(=O)N[C@H]1CCO[C@@H](c2nc(C(=O)NC(C)C)cs2)C1 — lower, 10.6%
- CC[C@H](C)[C@H](NC(=O)[C@H]1CCCCN1C)C(=O)N(C)[C@H]1CCO[C@@H](c2nc(C(=O)NCCc3ccccc3)cs2)C1 — lower, 5.87%
- CC[C@H](C)[C@H](NC(=O)CN(C)C)C(=O)N[C@H]1CCO[C@@H](c2nc(C(=O)NCCc3ccccc3)cs2)C1 — higher, 19.9%
- CC[C@H](C)[C@@H](C(=O)N[C@H]1CCO[C@@H](c2nc(C(=O)NC(C)C)cs2)C1)N(C)C — higher, 16.9%
